System: radiation-induced mucositis
Assay: Acute radiation model of oral mucositis in hamsters
Assay type: in vivo, Syrian Golden Hamsters
Conditions: for % Days with mucositis score ≧3 / Days with mucositis score ≧3: once daily beginning on day -1, 40 Gy radiation day 0, scored day 6 to 28; for Days with mucositis score ≧3: Total Days 240
From the text: The acute radiation model in hamsters has proven to be an accurate, efficient and cost-effective technique to provide a preliminary evaluation of anti-mucositis compounds (Sonis et al., Oral Surg Oral Med Oral Pathol 1990; 69(4):437-448). The course of mucositis in this model is well defined and results in peak scores approximately 14-16 Days following radiation. The acute model has little systemic toxicity, resulting in few hamster deaths which makes the acute model amenable for initial efficacy studies. The acute model has also been used to study specific mechanistic elements in the pathogenesis of mucositis.
Forty (40) Male LVG Syrian Golden Hamsters (Charles River Laboratories), aged 5 to 6 weeks, with average body weight of 116.3 g at study commencement, were used. Animals were individually numbered using an ear punch and housed 10 animals per cage. Animals were fed with a Purina Labdiet® 5061 rodent diet and water was provided ad libitum. Animals were acclimatized for two days prior to study commencement.
Animals were randomly and prospectively divided into four (4) treatment groups prior to irradiation. Mucositis was induced using a standardized acute radiation protocol, where a single dose of radiation (40 Gy/dose) was administered to all animals on day 0. Radiation was generated with a 160 kilovolt potential (15-ma) source at a focal distance of 30 cm, hardened with an AI filtration system. Irradiation targeted the left buccal pouch mucosa at a rate of 3.2 Gy/minute. Prior to irradiation, animals were anesthetized with an intra-peritoneal injection of Ketamine (160 mg/kg) and Xylazine (8 mg/kg). The left buccal pouch was everted, fixed and isolated using a lead shield.
Controls or 3-(3-Fluoro-4-hydroxy-phenyl)-7-hydroxy-naphthalene-1-carbonitrile (Compound 1) were given in the volumes and by the routes described in Table 1 and dosing began the day before radiation treatment.
The grade of mucositis was scored, beginning day 6, and for every second day thereafter, through and including day 28. For the evaluation of mucositis, the animals were anesthetized with an inhalation anesthetic, and the left pouch everted. Mucositis was scored visually by comparison to a validated photographic scale, ranging from 0 for normal, to 5 for severe ulceration (clinical scoring). In descriptive terms, this scale is defined as follows: Score: Description: • 0 Pouch completely healthy. No erythema or vasodilation. • 1 Light to severe erythema and vasodilation. No erosion of mucosa. • 2 Severe erythema and vasodilation. Erosion of superficial aspects of mucosa leaving denuded areas. Decreased stippling of mucosa. • 3 Formation of off-white ulcers in one or more places. Ulcers may have a yellow/gray appearance due to pseudomembrane. Cumulative size of ulcers should equal about ¼ of the pouch. Severe erythema and vasodilation. • 4 Cumulative seize of ulcers should equal about ½ of the pouch. Loss of pliability. Severe erythema and vasodilation. • 5 Virtually all of pouch is ulcerated. Loss of pliability (pouch can only partially be extracted from mouth)
A score of 1-2 is considered to represent a mild stage of the disease, whereas a score of 3-5 is considered to indicate moderate to severe mucositis.
The effect on mucositis of each route of administration of Compound 1 compared to vehicle was assessed by determining the difference in the number of days hamsters in each group have ulcerative (score ≧3) mucositis. Statistical significance was assessed by a Chi-squared test and p<0.05 was considered statistically significant.

Compound: N#Cc1cc(-c2ccc(O)c(F)c2)cc2ccc(O)cc12 [Compound 1, 3-(3-Fluoro-4-hydroxy-phenyl)-7-hydroxy-naphthalene-1-carbonitrile]
- % Days with mucositis score ≧3 (Gavage, 10 mg/kg): 44%
- Days with mucositis score ≧3 (Gavage, 10 mg/kg): 106 days
- % Days with mucositis score ≧3 (Topical (intrapouch), 500 nM): 30%
- Days with mucositis score ≧3 (Topical (intrapouch), 500 nM): 72 days
- change in the number of days hamsters had ulcerative (score ≧3) mucositis, in words (administered by gavage, vs vehicle): no significant change
- number of days animals experienced ulcerative mucositis, in words (administered topically (into the pouch), vs vehicle): significantly reduced

Source: patent US20060211672A1, “Use of estrogen receptor-beta selective agonists for radiation-or chemotherapy-induced mucositis and radiation cystitis” (Wyeth, priority 2005, published 2006)
